Source: patent US9476087B2, “Methods and compounds for detecting beta-lactamase activity” (Nanyang Technological University, priority 2008, dated 2016)

Columns and labels:
wild type E. coli Bl21 = assay: Nitrocefin colorimetric assay in living bacteria; format: cell-based; details: nitrocefin 8 μM
Experimental: (§1) FIG. 22 depicts a colorimetric measurement after mixing nitrocefin with different bacterial suspensions. 1: Nitrocefin solution (8 μM) only; 2: Nitrocefin (8 μM) mixed with wild type E. coli Bl21; 3: Nitrocefin (8 μM) mixed with β-lactam antibiotics resistant E. coli Bl21; 4: Nitrocefin (8 μM) mixed with clinical isolate K. pneumoniae (ATCC 700603) strains. […] There was no color difference between the Bla-encoded E. coli Bl21 and the K. pneumoniae strains.
(§2) Bacterial cells (˜10^8 cfu/mL) were suspended in 1 ml of PBS buffer (pH 7.4) which contained substrates under the room temperature. Nitrocefin solution (from Merck) was incubated with bacteria for further enzyme interactions. The final concentration was maintained at 8 μM, which was the same as the gold nanoparticles based enzymatic assay. After 20 mins interaction and followed by centrifugation, supernatant was applied for colorimetric image. The color change with different bacterial suspensions is depicted in FIG. 22.

[1] = system: clinical isolate K. pneumoniae (ATCC 700603); assay: Nitrocefin colorimetric assay in living bacteria; format: cell-based; details: nitrocefin 8 μM
Experimental: as §1, §2

[2] = system: β-lactam antibiotics resistant E. coli Bl21; assay: Nitrocefin colorimetric assay in living bacteria; format: cell-based; details: nitrocefin 8 μM
Experimental: as §1, §2

[3] = system: β-lactamase producing microorganisms; details: Hakimelahi et al. 2005; cited from earlier work
[4] = system: CC(=O)NC1C(=O)N2C(C(=O)O)=C(CSc3ccc(CC(=O)NCCOCCOCCN)cc3)CSC12; assay: purified protein, by the assay type; details: other: 25° C., PBS pH 7.4, β-lactamase 5.0 nM, absorbance change at 650 nm
Experimental: The kinetic measurements were carried out at 25° C. in PBS (phosphate buffered saline) buffer at pH 7.4. The absorbance change at 650 nm was measured by means of a UV spectrophotometer.
The rate of enhancement in absorbance at 650 nm was applied to determine the kinetic properties of enzyme hydrolysis. The values of the kinetic parameters (Km and Kcat) were determined from the double-reciprocal plot of the hydrolysis rate versus substrate concentrations (Lineweaver-Burk plot, based on the Michaelis-Menten model).
The kinetic experiments were carried out at 25° C. in PBS buffer with pH 7.4. The absorbance change at 650 nm was measured using a UV spectrophotometer. […] The rate of enhancement in absorbance at 650 nm was applied to determine the kinetic properties of enzyme hydrolysis. The 9 values of the kinetic parameters (Km and Kcat) were determined from the double-reciprocal plot of the hydrolysis rate versus substrate concentrations (Lineweaver-Burk plot).

## O=C(Cc1cccs1)N[C@@H]1C(=O)N2C(C(=O)O)=C(/C=C/c3ccc([N+](=O)[O-])cc3[N+](=O)[O-])CS[C@H]12 [nitrocefin]
Wild type E. coli Bl21
  color of nitrocefin solution: pink color was also detected
[1]
  color change of nitrocefin solution: color change from yellow to pink
[2]
  color change of nitrocefin solution: color change from yellow to pink

## COC(=O)C1=C(C(=O)OC(Cl)(Cl)C(Cl)(Cl)OC(=O)C2=C(c3ccccc3)C[C@@H]3[C@@H](NC(=O)Cc4ccccc4)C(=O)N23)N2C(=O)[C@@H](NC(=O)Cc3ccccc3)[C@H]2C1 (relative stereo) [(5R,6S)-rel-7-oxo-6-[(phenylacetyl)amino]-1-azabicyclo[3.2.0]hept-2-ene-2,3-dicarboxylic acid 3-methyl 2-[1,1,2,2-tetrachloro-2-[[[(5R,6R)-7-oxo-3-phenyl-6-[(phenylacetyl)amino]-1-azabicyclo[3.2.0]hept-2-en-2-yl]carbonyl]oxy]ethyl]ester]
[3]
  activity against β-lactamase producing microorganisms: excellent activity

## β-lactamase (Escherichia coli)
[4]
  Km: 14.1 µM
  kcat: 22.7 s⁻¹
